Measurements taken from PubChem BioAssay (NCI).
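Dose response: 5 concentrations. Exposure: 48 h. Format: 96-well plates. Endpoint: linear interpolation; highest concentration if not reached. Abbreviation: GI50, concentration required for 50% inhibition of growth. TGI denotes the concentration required for complete inhibition of growth.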

Columns and labels:
Assay in all cases: DTP human tumour cell line panel, 48 h
PC-3 prostate = tested on: PC-3 prostate
HOP-62 NSCLC = tested on: HOP-62 NSCLC
KM12 colon = tested on: KM12 colon
A549 NSCLC = tested on: A549 NSCLC
NCI/ADR-RES ovarian = tested on: NCI/ADR-RES ovarian
MCF7 breast = tested on: MCF7 breast
SR leukemia = tested on: SR leukemia
MOLT-4 leukemia = tested on: MOLT-4 leukemia
UO-31 renal = tested on: UO-31 renal
COLO 205 colon = tested on: COLO 205 colon

Row | SMILES | TGI (PC-3 prostate) [µM] | TGI (HOP-62 NSCLC) [µM] | TGI (KM12 colon) [µM] | TGI (A549 NSCLC) [µM] | TGI (NCI/ADR-RES ovarian) [µM] | TGI (MCF7 breast) [µM] | TGI (SR leukemia) [µM] | TGI (MOLT-4 leukemia) [µM] | TGI (UO-31 renal) [µM] | TGI (COLO 205 colon) [µM] | GI50 (PC-3 prostate) [µM] | GI50 (HOP-62 NSCLC) [µM] | GI50 (KM12 colon) [µM] | GI50 (MOLT-4 leukemia) [nM] | GI50 (A549 NSCLC) [µM] | GI50 (UO-31 renal) [µM] | GI50 (MCF7 breast) [µM] | GI50 (COLO 205 colon) [µM] | GI50 (NCI/ADR-RES ovarian) [nM]
1 | CCn1c(CCl)nc2c1C(=O)c1ccccc1C2=O | 4.53 | 4.95 | 3.23 | > 100 | 6.5 | 3.79 |  |  |  |  |  |  |  |  |  |  |  |  | 
2 | C/C(=N\NC(=S)N1CCCCCC1)c1cccc2cccnc12 | > 100 | > 70.7 | > 87.4 | > 100 | 5.42 | > 100 | 14.5 | > 100 | > 44.2 | 12.3 |  |  |  |  |  |  |  |  | 
3 | CCCCCCCCCCCc1c(O)c(=O)c2c(oc3c(=O)c(CCCCCCCCCCC)c(O)c(=O)c3n2-c2ccc(N(C)C)cc2)c1=O |  | 45.9 | 26.8 | 52.4 |  |  | > 100 | > 100 |  | 38.1 |  |  |  |  |  |  |  |  | 
4 | C#CCN(Cc1ccc2nc(-c3ccccc3)c(N)nc2c1)c1cc(OC)c(OC)c(OC)c1 |  | > 100 |  | > 100 |  |  | 39.2 | 35.7 | 69.3 | 42.8 |  |  |  |  |  |  |  |  | 
5 | CC(=O)NC1=NC(=O)/C(=C/c2ccc(/C=C3/C(=O)N=C(NC(C)=O)N3C)cc2)N1C |  | > 100 | > 100 | > 100 | > 100 | > 100 |  | > 100 | > 100 | > 100 |  |  |  |  |  |  |  |  | 
6 | CC1SC2(CCCCC2)N(NC(=O)c2[nH]c3ccc(Br)cc3c2-c2ccccc2)C1=O (stereo not drawn) | 89.2 | > 100 | > 100 | > 100 |  | > 100 |  | > 100 | > 100 | > 100 | 7.45 | 37 | 16.1 | 3950 | 15.7 | 21.6 | 20.5 | > 100 | 
7 | COc1ccc(C(=O)C#Cc2c[nH]c(=O)[nH]c2=O)cc1 |  | 47.7 | > 52.6 | > 59.6 |  |  | 8.38 | 8.19 | 35.2 | 24.8 |  |  |  |  |  |  |  |  | 
8 | COc1cccc(SSc2cccc(OC)c2C(=O)O)c1C(=O)O |  | > 100 | > 100 | > 100 |  |  | > 100 | > 100 | > 100 | > 100 |  |  |  |  |  |  |  |  | 
9 | N#Cc1cccc(C=NC23CC4CC(CC(C4)C2)C3)c1 |  | > 100 | > 100 | > 100 |  |  | > 100 | > 100 | > 100 | > 100 |  |  |  |  |  |  |  |  | 
10 | c1ccc(OCc2nnc3n2N=C(c2ccccc2)CS3)cc1 |  | > 100 | > 100 | > 100 |  |  | > 100 | > 100 | > 100 |  |  |  |  |  |  |  |  |  | 
11 | Cc1nc2cc(Nc3ccccc3C(=O)O)ccc2s1 |  | > 100 | > 100 | > 100 |  |  | > 100 | > 100 | > 100 | > 100 |  |  |  |  |  |  |  |  | 
12 | COc1ccc(NC(=O)CC(=O)n2nc(C)c(N=Nc3ccccc3C(=O)O)c2C)cc1 |  | > 100 | > 100 | > 100 |  |  |  | > 100 | > 100 | > 100 |  |  |  |  |  |  |  |  | 
13 | C[C@H](CCC1SC1(C)C)C1CCC2(C)C3=C(CC[C@]12C)[C@@]1(C)CC[C@H](O)C(C)(C)C1CC3 (stereo partly drawn) |  | > 100 | > 100 | > 100 |  |  | > 100 | > 100 | > 100 | > 100 |  |  |  |  |  |  |  |  | 
14 | CCCCOC1OC(COC(=O)C(C)C)C(OC(=O)C(C)C)C(O)C1OC1OC(C)C(OC(=O)CCC)C(OC(=O)C(C)C)C1O (stereo not drawn) | 20.7 | 27.4 | 29 | 26.5 | 11.7 | 61.6 |  | 4.12 | 32.2 | 25.8 | 8.35 | 14.3 | 15.1 | 1710 | 13.6 | 16.8 | 8.4 | 13.1 | 3850
15 | CC(=O)NC(C=O)C(O[C@H](C)C(=O)NC(C)C(=O)NC(CCC(N)=O)C(=O)OCc1ccccc1)C(O)C(O)COC(=O)CCNc1c2ccccc2nc2cccc([N+](=O)[O-])c12 (stereo partly drawn) |  | 10.2 | 3.75 | 5.13 |  |  | 2.69 | 14.8 | 35.9 | 2.74 |  |  |  |  |  |  |  |  | 
16 | COC1CC(N)C(O)C(C)O1 (stereo not drawn) | > 100 | > 100 | > 100 |  | > 100 | > 100 | > 100 | > 100 | > 100 | > 100 |  |  |  |  |  |  |  |  | 
17 | Cc1cc(Cl)ccc1C(=O)c1ccc2ccccc2c1C(=O)O | > 100 |  | > 100 | > 100 | > 100 | > 100 | > 100 | > 100 | > 100 | > 100 |  |  |  |  |  |  |  |  | 
18 | N#CC1=C(O)NC(O)=C(C#N)C1c1ccc(C2C(C#N)=C(O)NC(O)=C2C#N)cc1 |  | > 100 | > 100 | > 100 |  |  |  | > 100 | > 100 | 63.1 |  |  |  |  |  |  |  |  | 
19 | COC(=O)c1cc(OC)c(OC)c(OC)c1-c1cc2c(cc1C=O)OCO2 | > 10 | > 10 | > 10 | > 10 | > 10 | > 10 |  | > 10 | > 10 | > 10 |  |  |  |  |  |  |  |  | 
20 | O=C1CN(c2cccc(Cl)c2)C(=O)CN1NCNN1CC(=O)N(c2cccc(Cl)c2)CC1=O | > 100 | > 100 | > 100 | > 100 |  | > 100 | > 100 | > 100 | > 100 | > 100 |  |  |  |  |  |  |  |  | 
21 | NC(=S)N1N=C2c3ccccc3CC[C@H]2[C@@H]1c1ccc(Cl)cc1 |  | > 100 | > 100 | > 100 |  |  | > 100 | 89.8 | 66.8 | 34.8 |  |  |  |  |  |  |  |  | 
22 | Cl.Fc1c[c-]c(-c2ccccn2)c(F)c1.[Pt].c1ccc([PH+](C[PH+](c2ccccc2)c2ccccc2)c2ccccc2)cc1 | 1.14 |  | 1 | 1.34 | 5.84 | 1.12 |  |  |  |  | 0.276 |  | 0.276 |  | 0.206 |  | 0.198 |  | 1610
23 | CC(=O)c1ccc(NC(=O)C(=O)C(C#N)CC(C)(C)C=O)cc1 (stereo not drawn) |  | > 100 | > 100 | > 100 |  |  | > 100 | > 100 | > 100 | > 100 |  |  |  |  |  |  |  |  | 
24 | C=Cn1c([N+](=O)[O-])cnc1/C=C/c1ccc(C(=O)OCCN2CCOCC2)cc1 | > 100 | > 100 | > 100 | > 100 | > 100 | > 100 |  | > 100 |  | > 100 |  |  |  |  |  |  |  |  | 
